Reference: patent US12637440B2, “Amide derivative useful as diacylglycerol acyltransferase 2 inhibitor, and use thereof” (LG CHEM, LTD., priority 2019, dated 2026)
pIC50: −log10 of the molar value.

Target: T1, Recombinant human DGAT2 protein (Homo sapiens, UniProt Q96PD7)
T1 construct: FLAG (DYKDDDDK); (N); made in house; host or cells: Sf-21 insect cells (BacPAK baculovirus system); used as a membrane preparation
T1 sequence (Q96PD7 1-388): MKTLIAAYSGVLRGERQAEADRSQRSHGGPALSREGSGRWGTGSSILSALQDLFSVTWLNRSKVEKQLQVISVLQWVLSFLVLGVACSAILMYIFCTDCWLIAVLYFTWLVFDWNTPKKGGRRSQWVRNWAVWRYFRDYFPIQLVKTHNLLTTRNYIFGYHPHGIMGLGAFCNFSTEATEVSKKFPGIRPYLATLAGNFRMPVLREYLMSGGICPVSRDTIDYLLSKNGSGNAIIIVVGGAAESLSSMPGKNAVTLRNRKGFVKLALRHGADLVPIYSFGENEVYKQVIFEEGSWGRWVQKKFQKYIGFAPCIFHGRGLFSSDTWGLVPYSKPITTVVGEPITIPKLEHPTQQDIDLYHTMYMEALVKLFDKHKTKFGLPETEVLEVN
Assay: Measurement of inhibitory effect against DGAT2 enzyme activity (SPA, Phospholipid FlashPlate, [14C]-TG production)
Type: biochemical
Conditions: concentration inhibiting [14C]-labeled triacyl glycerol (TG) production by 50%; 2 μg DGAT2-membrane protein from Sf-21 cells, 37° C.
Outline: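 Membranes from Sf-21 cells expressing human DGAT2 (2 μg) preincubated 20 min at 37 °C with compound (3 nM–10 μM, 1% DMSO) in HEPES/MgCl2/BSA with 50 μM 1,2-dioleoyl glycerol, then 1 μM [14C]oleoyl-CoA for 15 min. [14C]-TG measured by SPA FlashPlate; inhibition as % of untreated control.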

Row | Structure (SMILES) | pIC50
1 | CCOc1ccccc1O[C@@H]1CCCN(c2cncc(NC(=O)C3CCN(CC(=O)O)CC3)n2)C1 [Example 84, (R)-2-(4-((6-(3-(2-ethoxyphenoxy)piperidin-1-yl)pyrazin-2-yl)carbamoyl)piperidin-1-yl)acetic acid] | < 5.00
2 | CCOc1ccccc1O[C@@H]1CCCN(c2cncc(NC(=O)C3(C)CCNC3)n2)C1 (stereo partly drawn) [Example 88, N-(6-((R)-3-(2-ethoxyphenoxy)piperidin-1-yl)pyrazin-2-yl)-3-methylpyrrolidine-3-carboxamide] | 5.21
3 | CCOc1ccccc1O[C@@H]1CCCN(c2cncc(NC(=O)C(C)(C)c3ccc(CC(C)(C)C(=O)O)cc3)n2)C1 [Example 110, (R)-3-(4-(1-((6-(3-(2-ethoxyphenoxy)piperidin-1-yl)pyrazin-2-yl)amino)-2-methyl-1-oxopropan-2-yl)phenyl)-2,2-dimethylpropanoic acid] | 7.12

Results, then the compound that gave them:

Row | pIC50 | Structure (SMILES)
4 | 6.41 | CCOc1ccccc1O[C@@H]1CCCN(c2cncc(NC(=O)C3CCN(C(C)=O)CC3)n2)C1 [Example 16]
5 | 6.92 | CCOc1ccccc1O[C@@H]1CCCN(c2cncc(NC(=O)Cc3ccc(C[C@H](C)C(=O)O)cc3)n2)C1 [Example 64]
